# Data from ChEMBL document CHEMBL1138402, “CCR5 receptor antagonists: discovery and SAR study of guanylhydrazone derivatives” (Bioorg Med Chem Lett, 2007).
# Target: C-C chemokine receptor type 5 (Homo sapiens, UniProt P51681)
# Assay: Displacement of [125I]MIP1-alpha from human CCR5/CD4 expressed in HEK293 cells
# Format: cell-based
# C-C chemokine receptor type 5, sequence (P51681 whole entry): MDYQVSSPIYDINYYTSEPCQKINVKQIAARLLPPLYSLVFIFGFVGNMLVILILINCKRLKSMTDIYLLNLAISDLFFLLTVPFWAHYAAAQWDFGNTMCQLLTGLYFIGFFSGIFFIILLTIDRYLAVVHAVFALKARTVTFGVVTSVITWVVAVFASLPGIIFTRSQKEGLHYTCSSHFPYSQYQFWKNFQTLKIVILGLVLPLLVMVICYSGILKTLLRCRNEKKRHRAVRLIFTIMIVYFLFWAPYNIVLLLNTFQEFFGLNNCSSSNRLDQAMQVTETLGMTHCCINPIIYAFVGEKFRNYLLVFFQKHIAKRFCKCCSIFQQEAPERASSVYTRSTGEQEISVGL
row,Compound,IC50 [nM]
1,CN(C)Cc1cc(Br)ccc1OCc1ccc(Cl)cc1,600
2,CCN(CC)Cc1cc(Br)ccc1OCc1ccc(Cl)cc1,1400
3,COc1ccc(COc2ccc(Br)cc2/C=N/NC(=N)N)cc1,700
4,N=C(N)N/N=C/c1cc(Br)ccc1OCc1ccc(OCc2ccccc2)cc1,2900
5,COc1ccc([N+](=O)[O-])cc1COc1ccc(Br)cc1/C=N/NC(=N)N,8700
6,N=C(N)N/N=C/c1cccc(Cl)c1OCc1ccc(Cl)cc1,> 30000
7,COc1cc(Br)cc(/C=N/NC(=N)N)c1OCc1ccc(Cl)cc1,> 30000
8,COC(=O)c1cccc(COc2ccc(Br)cc2/C=N/NC(=N)N)c1,1600
9,N=C(N)N/N=C/c1cc(Br)ccc1OCc1cccc(C(=O)O)c1,39000
10,Cc1ccc(COc2ccc(Br)cc2/C=N/NC(=N)N)cc1,500
11,Cc1cccc(COc2ccc(Br)cc2/C=N/NC(=N)N)c1,1700
12,N=C(N)N/N=C/c1cc(Br)ccc1OCc1cccc2ccccc12,1100
13,C/C(=N/NC(=N)N)c1cc(Cl)ccc1OCc1ccc(Cl)cc1,8500
14,CN(/N=C/c1cc(Br)ccc1OCc1ccc(Cl)cc1)C1=NCCN1,14000
15,N=C(N)N/N=C/c1cc(Br)ccc1OCc1ccc(Br)cc1,600
16,N#Cc1ccc(COc2ccc(Br)cc2/C=N/NC(=N)N)cc1,480
17,N#Cc1cccc(COc2ccc(Br)cc2/C=N/NC(=N)N)c1,2000
18,N=C(N)N/N=C/c1cc(Br)ccc1OCc1cccc([N+](=O)[O-])c1,1700
19,N=C(N)N/N=C/c1cc(Cl)ccc1OCc1ccc(Cl)cc1,600
20,N=C(N)N/N=C/c1cc(F)ccc1OCc1ccc(Cl)cc1,3400
21,N=C(N)N/N=C/c1cc(Cl)cc(Cl)c1OCc1ccc(Cl)cc1,3100
22,N=C(N)N/N=C/c1cc(Br)ccc1OCc1ccccc1[N+](=O)[O-],5700
23,CC(C)(C)c1ccc(OCc2ccc(Cl)cc2)c(/C=N/NC(=N)N)c1,> 30000
24,N#Cc1ccc(OCc2ccc(Cl)cc2)c(/C=N/NC(=N)N)c1,600

row,Compound,IC50 [nM]
1,N=C(N)N/N=C/c1ccc(Cl)cc1OCc1ccc(Cl)cc1,> 30000
2,C/C(=N\NC(=N)N)c1cc(Br)ccc1OCc1ccc(Cl)cc1,200
3,COC(=O)c1ccc(COc2ccc(Br)cc2/C=N/NC(=N)N)cc1,1300
4,CCN(CC)c1ccc(OCc2ccc(Cl)cc2)c(/C=N/NC(=N)N)c1,> 30000
5,COc1cc(Br)cc(/C(C)=N/NC(=N)N)c1OCc1ccc(C#N)cc1,93
6,CC/C(=N\NC(=N)N)c1cc(Br)cc(OC)c1OCc1ccc(Cl)cc1,400
7,CC(C)C/C(=N\NC(=N)N)c1cc(Cl)ccc1OCc1ccc(F)cc1,> 30000
8,COC(=O)c1ccc(OCc2ccc(Cl)cc2)c(/C=N/NC(=N)N)c1,> 30000
9,N=C(N)N/N=C/c1cc(N)ccc1OCc1ccc(Cl)cc1,> 30000
10,Clc1ccc(COc2ccc(Br)cc2CN2CCOCC2)cc1,1000
11,N=C(N)N/N=C/c1cc(Br)ccc1OCc1ccc(-c2ccccc2)cc1,1700
12,N=C(N)N/N=C/c1cc(Br)ccc1OCc1ccc(F)cc1F,3700
13,C/C(=N\NC(=N)N)c1cc(Cl)ccc1OCc1ccc(Cl)cc1,140
14,CCCC/C(=N\NC(=N)N)c1cc(Cl)ccc1OCc1ccc(F)cc1,4200
15,Clc1ccc(COc2ccc(Br)cc2/C=N/NC2=NCCN2)cc1,750
16,N=C(N)N/N=C/c1cc(Br)ccc1OCc1ccc([N+](=O)[O-])cc1,900
17,N=C(N)N/N=C/c1cc([N+](=O)[O-])ccc1OCc1ccc(Cl)cc1,1200
18,N=C(N)N/N=C/c1cccc(F)c1OCc1ccc(Cl)cc1,> 30000
19,N=C(N)N/N=C/c1cc(Br)ccc1OCc1ccccc1,1900
20,N=C(N)N/N=C/c1cc(Br)ccc1OCc1ccc(F)cc1,800
21,N=C(N)N/N=C/c1cc(Br)ccc1OCc1ccc(Cl)cc1,840
22,Clc1ccc(COc2ccc(Br)cc2/C=N/NC2=NCCCN2)cc1,2000
23,N=C(N)N/N=C/c1ccccc1OCc1ccc(Cl)cc1,> 30000
